US20260262643A1, “HERBICIDAL BENZOXAZINES” (FMC CORPORATION, priority 2022, published 2026)

Legend:
barnyardgrass [1] = assay: Test C preemergence; format: in vivo, Echinochloa crusgalli; conditions: 0 to 100 scale (0 no effect, 100 complete control); for Barnyardgrass plant response rating: 125 g ai/ha, preemergence; for Plant response rating, Barnyardgrass: Preemergence, 500 g ai/ha, visual rating after 10 days
Outline: (§1)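 Seeds in loam–sand blend received preemergence directed soil spray of test chemicals in non-phytotoxic solvent with surfactant; postemergence treatment was applied at one- to two-leaf stage (2–10 cm). After 10 days in greenhouse, injury rated visually versus untreated controls, 0 (no effect) to 100 (complete control).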

blackgrass [2] = assay: Test C preemergence; format: in vivo, Alopecurus myosuroides; conditions: 0 to 100 scale (0 no effect, 100 complete control); for Plant response rating, Blackgrass: Preemergence, 500 g ai/ha, visual rating after 10 days; for Blackgrass plant response rating: Test C, preemergence, 125 g ai/ha
Outline: as §1

corn [3] = assay: Test C preemergence; format: in vivo, Zea mays; conditions: 0 to 100 scale (0 no effect, 100 complete control); for Corn plant response rating: preemergence
Outline: as §1

green foxtail [4] = assay: Test C preemergence; format: in vivo, Setaria viridis; conditions: 0 to 100 scale (0 no effect, 100 complete control); for Foxtail, Green plant response rating: preemergence
Outline: as §1

kochia [5] = assay: Test C preemergence; format: in vivo, Bassia scoparia; conditions: 0 to 100 scale (0 no effect, 100 complete control); for Kochia plant response rating: preemergence
Outline: as §1

oat, wild [6] = assay: Test C preemergence; format: in vivo, Avena fatua; conditions: 0 to 100 scale (0 no effect, 100 complete control); for Oat, Wild plant response rating: preemergence
Outline: as §1

pigweed, palmer [7] = assay: Test C preemergence; format: in vivo, Amaranthus palmeri; conditions: 0 to 100 scale (0 no effect, 100 complete control); for Pigweed, Palmer plant response rating: preemergence
Outline: as §1

ragweed [8] = assay: Test C preemergence; format: in vivo, Ambrosia artemisiifolia; conditions: 0 to 100 scale (0 no effect, 100 complete control); for Ragweed plant response rating: preemergence
Outline: as §1

ryegrass, Italian [9] = assay: Test C preemergence; format: in vivo, Lolium multiflorum; conditions: 0 to 100 scale (0 no effect, 100 complete control); for Ryegrass, Italian plant response rating: preemergence
Outline: as §1

soybean [10] = assay: Test C preemergence; format: in vivo, Glycine max; conditions: 0 to 100 scale (0 no effect, 100 complete control); for Soybean plant response rating: preemergence
Outline: as §1

wheat [11] = assay: Test C preemergence; format: in vivo, Triticum aestivum; conditions: 0 to 100 scale (0 no effect, 100 complete control); for Wheat plant response rating: preemergence
Outline: as §1

barnyardgrass [12] = assay: Test C postemergence; format: in vivo, Echinochloa crusgalli; conditions: 10 days
Outline: as §1

blackgrass [13] = assay: Test C postemergence; format: in vivo, Alopecurus myosuroides; conditions: 10 days
Outline: as §1

corn [14] = assay: Test C postemergence; format: in vivo, Zea mays; conditions: 10 days
Outline: as §1

green foxtail [15] = assay: Test C postemergence; format: in vivo, Setaria viridis; conditions: 10 days
Outline: as §1

kochia [16] = assay: Test C postemergence; format: in vivo, Bassia scoparia; conditions: 10 days
Outline: as §1

oat, wild [17] = assay: Test C postemergence; format: in vivo, Avena fatua; conditions: 10 days
Outline: as §1

pigweed, palmer [18] = assay: Test C postemergence; format: in vivo, Amaranthus palmeri; conditions: 10 days
Outline: as §1

ragweed [19] = assay: Test C postemergence; format: in vivo, Ambrosia artemisiifolia; conditions: 10 days
Outline: as §1

ryegrass, Italian [20] = assay: Test C postemergence; format: in vivo, Lolium multiflorum; conditions: 10 days
Outline: as §1

soybean [21] = assay: Test C postemergence; format: in vivo, Glycine max; conditions: 10 days
Outline: as §1

wheat [22] = assay: Test C postemergence; format: in vivo, Triticum aestivum; conditions: 10 days
Outline: as §1

galium = assay: Test C postemergence; format: in vivo, Galium aparine; conditions: 10 days
Outline: as §1

horseweed = assay: Test C postemergence; format: in vivo, Erigeron canadensis; conditions: 10 days
Outline: as §1

barnyardgrass [23] = assay: Test D flooded paddy test; format: in vivo, Echinochloa crus-galli; conditions: 250 g ai/ha, applied to paddy water, visual rating after 13 to 14 days, scale 0 to 100 (0 no effect, 100 complete control)
Outline: (§2)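 Visual ratings from 0, meaning no effect, to 100, meaning complete control, were assigned against untreated controls 13 to 14 days after compounds were added to the floodwater of pots kept 3 cm deep, with plants at the 2-leaf stage.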

ducksalad = assay: Test D flooded paddy test; format: in vivo, Heteranthera limosa; conditions: 250 g ai/ha, applied to paddy water, visual rating after 13 to 14 days, scale 0 to 100 (0 no effect, 100 complete control)
Outline: as §2

rice = assay: Test D flooded paddy test; format: in vivo, Oryza sativa; conditions: 250 g ai/ha, applied to paddy water, visual rating after 13 to 14 days, scale 0 to 100 (0 no effect, 100 complete control)
Outline: as §2

sedge, umbrella = assay: Test D flooded paddy test; format: in vivo, Cyperus difformis; conditions: 250 g ai/ha, applied to paddy water, visual rating after 13 to 14 days, scale 0 to 100 (0 no effect, 100 complete control)
Outline: as §2

[24] = Preemergence, 500 g ai/ha, visual rating after 10 days
[25] = 125 g ai/ha, postemergence, 0 to 100 scale, 0 no effect, 100 complete control
[26] = Postemergence, 500 g ai/ha, visual 0 to 100 scale (0 no effect, 100 complete control)

SMILES: Cc1ccc(-n2cnc(C3(C)CCC3)n2)cc1C(=O)N1C[C@H](C)Oc2c(Cl)cccc21 [Compound 167]
- Barnyardgrass plant response rating (barnyardgrass [1]): 90
- Plant response rating, Barnyardgrass (barnyardgrass [1]): 100
- Plant response rating, Blackgrass (blackgrass [2]): 70
- Blackgrass plant response rating (blackgrass [2]): 30
- Plant response rating, Corn (corn [3]; [24]): 0
- Corn plant response rating (corn [3]; Test C, 125 g ai/ha): 0
- Plant response rating, Foxtail, Green (green foxtail [4]; [24]): 100
- Foxtail, Green plant response rating (green foxtail [4]; Test C, 125 g ai/ha): 100
- Plant response rating, Kochia (kochia [5]; [24]): 100
- Kochia plant response rating (kochia [5]; Test C, 125 g ai/ha): 90
- Plant response rating, Oat, Wild (oat, wild [6]; [24]): 50
- Oat, Wild plant response rating (oat, wild [6]; Test C, 125 g ai/ha): 20
- Plant response rating, Pigweed, Palmer (pigweed, palmer [7]; [24]): 100
- Pigweed, Palmer plant response rating (pigweed, palmer [7]; Test C, 125 g ai/ha): 100
- Plant response rating, Ragweed (ragweed [8]; [24]): 80
- Ragweed plant response rating (ragweed [8]; Test C, 125 g ai/ha): 10
- Plant response rating, Ryegrass, Italian (ryegrass, Italian [9]; [24]): 90
- Ryegrass, Italian plant response rating (ryegrass, Italian [9]; Test C, 125 g ai/ha): 80
- Plant response rating, Soybean (soybean [10]; [24]): 80
- Soybean plant response rating (soybean [10]; Test C, 125 g ai/ha): 40
- Plant response rating, Wheat (wheat [11]; [24]): 0
- Wheat plant response rating (wheat [11]; Test C, 125 g ai/ha): 0
- Plant response rating, Barnyardgrass (barnyardgrass [12]; [25]): 20
- Plant response rating, Barnyardgrass (barnyardgrass [12]; [26]): 60
- Plant response rating, Blackgrass (blackgrass [13]; [25]): 0
- Plant response rating, Blackgrass (blackgrass [13]; [26]): 70
- Plant response rating, Corn (corn [14]; [25]): 10
- Plant response rating, Corn (corn [14]; [26]): 20
- Plant response rating, Foxtail, Green (green foxtail [15]; [25]): 50
- Plant response rating, Foxtail, Green (green foxtail [15]; [26]): 90
- Plant response rating, Kochia (kochia [16]; [25]): 90
- Plant response rating, Kochia (kochia [16]; [26]): 100
- Plant response rating, Oat, Wild (oat, wild [17]; [25]): 0
- Plant response rating, Oat, Wild (oat, wild [17]; [26]): 20
- Plant response rating, Pigweed, Palmer (pigweed, palmer [18]; [25]): 90
- Plant response rating, Pigweed, Palmer (pigweed, palmer [18]; [26]): 100
- Plant response rating, Ragweed (ragweed [19]; [25]): 90
- Plant response rating, Ragweed (ragweed [19]; [26]): 90
- Plant response rating, Ryegrass, Italian (ryegrass, Italian [20]; [25]): 20
- Plant response rating, Ryegrass, Italian (ryegrass, Italian [20]; [26]): 80
- Plant response rating, Soybean (soybean [21]; [25]): 100
- Plant response rating, Soybean (soybean [21]; [26]): 100
- Plant response rating, Wheat (wheat [22]; [25]): 10
- Plant response rating, Wheat (wheat [22]; [26]): 20
- Plant response rating, Galium (galium; [25]): 90
- Plant response rating, Galium (galium; [26]): 100
- Plant response rating, Horseweed (horseweed; [25]): 10
- Plant response rating, Horseweed (horseweed; [26]): 30
- Plant response rating, Barnyardgrass (Flood) (barnyardgrass [23]): 0
- Plant response rating, Ducksalad (Flood) (ducksalad): 0
- Plant response rating, Rice (Flood) (rice): 0
- Plant response rating, Sedge, Umbrella (Flood) (sedge, umbrella): 0

SMILES: CCc1ncn(-c2ccc(OC)c(C(=S)N3C[C@H](C)Oc4c(C)cccc43)c2)n1 [Compound 271]
- Plant response rating, Barnyardgrass (barnyardgrass [1]): 100
- Barnyardgrass plant response rating (barnyardgrass [1]; Test C): 100
- Plant response rating, Blackgrass (blackgrass [2]): 60
- Blackgrass plant response rating (blackgrass [2]): 20
- Corn plant response rating (corn [3]; 500 g ai/ha): 0
- Corn plant response rating (corn [3]; Test C, 125 g ai/ha): 0
- Foxtail, Green plant response rating (green foxtail [4]; 500 g ai/ha): 100
- Foxtail, Green plant response rating (green foxtail [4]; Test C, 125 g ai/ha): 100
- Kochia plant response rating (kochia [5]; 500 g ai/ha): 100
- Kochia plant response rating (kochia [5]; Test C, 125 g ai/ha): 30
- Oat, Wild plant response rating (oat, wild [6]; 500 g ai/ha): 80
- Oat, Wild plant response rating (oat, wild [6]; Test C, 125 g ai/ha): 30
- Pigweed, Palmer plant response rating (pigweed, palmer [7]; 500 g ai/ha): 100
- Pigweed, Palmer plant response rating (pigweed, palmer [7]; Test C, 125 g ai/ha): 100
- Ragweed plant response rating (ragweed [8]; 500 g ai/ha): 100
- Ragweed plant response rating (ragweed [8]; Test C, 125 g ai/ha): 10
- Ryegrass, Italian plant response rating (ryegrass, Italian [9]; 500 g ai/ha): 90
- Ryegrass, Italian plant response rating (ryegrass, Italian [9]; Test C, 125 g ai/ha): 80
- Soybean plant response rating (soybean [10]; 500 g ai/ha): 100
- Soybean plant response rating (soybean [10]; Test C, 125 g ai/ha): 70
- Wheat plant response rating (wheat [11]; 500 g ai/ha): 80
- Wheat plant response rating (wheat [11]; Test C, 125 g ai/ha): 20
- Plant response rating, Barnyardgrass (barnyardgrass [12]; [25]): 70
- Plant response rating, Barnyardgrass (barnyardgrass [12]; [26]): 90
- Plant response rating, Blackgrass (blackgrass [13]; [25]): 70
- Plant response rating, Blackgrass (blackgrass [13]; [26]): 90
- Plant response rating, Corn (corn [14]; [25]): 50
- Plant response rating, Corn (corn [14]; [26]): 90
- Plant response rating, Foxtail, Green (green foxtail [15]; [25]): 90
- Plant response rating, Foxtail, Green (green foxtail [15]; [26]): 90
- Plant response rating, Kochia (kochia [16]; [25]): 60
- Plant response rating, Oat, Wild (oat, wild [17]; [25]): 80
- Plant response rating, Pigweed, Palmer (pigweed, palmer [18]; [25]): 90
- Plant response rating, Ragweed (ragweed [19]; [25]): 50
- Plant response rating, Ryegrass, Italian (ryegrass, Italian [20]; [25]): 60
- Plant response rating, Soybean (soybean [21]; [25]): 100
- Plant response rating, Wheat (wheat [22]; [25]): 70
- Plant response rating, Galium (galium; [25]): 90
- Plant response rating, Galium (galium; [26]): 100
- Plant response rating, Horseweed (horseweed; [25]): 50
- Plant response rating, Horseweed (horseweed; [26]): 90
- Plant response rating, Barnyardgrass (Flood) (barnyardgrass [23]): 0
- Plant response rating, Ducksalad (Flood) (ducksalad): 85
- Plant response rating, Rice (Flood) (rice): 10
- Plant response rating, Sedge, Umbrella (Flood) (sedge, umbrella): 100
